Assays:
[1] = tested on: T-cell; experiment: IL-2 secretion from T-cells stimulated with anti-CD3 antibody alone (Biological Example 2); type: cell-based, human; conditions: T-cell, read-out: IL-2 secretion Anti-CD3 stimulation; for fold induction at 1 µM: 1 μM Cbl-b inhibitor; for fold induction at 8 µM: 8 μM Cbl-b inhibitor
[2] = tested on: T-cell; experiment: CD25 cell surface staining on T-cells stimulated with anti-CD3 antibody alone (Biological Example 2); type: cell-based, human; conditions: T-cell, read-out: CD25 staining Anti-CD3 stimulation; for fold induction at 1 µM: 1 μM Cbl-b inhibitor; for fold induction at 8 µM: 8 μM Cbl-b inhibitor
[3] = tested on: T-cell; experiment: CD25 cell surface staining on T-cells co-stimulated with anti-CD3 and anti-CD28 antibody (Biological Example 2); type: cell-based, human; conditions: Homo sapiens, T-cell, read-out: CD25 staining Anti-CD3/Anti-CD28 stimulation; for fold induction at 0.3 µM: 0.3 μM Cbl-b inhibitor; for fold induction at 1 µM: 1 μM Cbl-b inhibitor; for fold induction at 4 µM: 4 μM Cbl-b inhibitor
Procedure, shortened: (§1)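 T-cells were stimulated with anti-CD3 antibody alone or with anti-CD28 antibody, in the presence or absence of Cbl-b inhibitor. IL-2 secretion or CD25 surface staining was measured, and values expressed as fold over the uninhibited baseline […].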

[4] = target: T1, Cbl-b (Homo sapiens, UniProt Q13191); experiment: Cbl-b activity assay (Cbl-b inhibition assay), TR-FRET of Cbl-b interaction with UbcH5B-Ub; type: biochemical; conditions: assay buffer with 100 mM NaCl, 60 nM Src kinase; read-out: Cbl-b activity IC50
Procedure, shortened: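 UbcH5B (C85K) conjugated to N-terminally Bodipy-Fluorescein-labeled ubiquitin served as the fluorescent partner. After compound preincubation, Src kinase (60 nM) with 1 mM ATP and 5 mM MgCl2 (final) was added for 1.5 h, followed by a further 1 h incubation. Some values were obtained with 50 mM NaCl and 30 nM Src.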

[5] = tested on: T-cell; experiment: IL-2 secretion from T-cells co-stimulated with anti-CD3 and anti-CD28 antibody (Biological Example 2); type: cell-based, human; conditions: Homo sapiens, T-cell, read-out: IL-2 secretion Anti-CD3/Anti-CD28 stimulation; for fold induction at 0.3 µM: 0.3 μM Cbl-b inhibitor; for fold induction at 1 µM: 1 μM Cbl-b inhibitor; for fold induction at 4 µM: 4 μM Cbl-b inhibitor
Procedure, shortened: as §1

[6] = target: T1, Cbl-b; experiment: Cbl-b inhibition assay (Cbl-b activity assay, FRET, Biological Example 1; 100 mM NaCl, 60 nM Src kinase); type: biochemical; conditions: upper bound stated in text lists; read-out: IC50 values in the Cbl-b inhibition assay of Biological Example 1
Procedure, shortened: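 FRET read-out: loss of signal marks inhibition. Mix = biotin-Avi-Cbl-b (N-term), Src kinase, UbcH5B-Ub(Bodipy-FL, irreversible conjugate), streptavidin-Tb, assay buffer.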

[7] = Homo sapiens, fold change over baseline (anti-CD3/anti-CD28 stimulated T-cells without inhibitor)
[8] = fold change over baseline (anti-CD3/anti-CD28 stimulated T-cells without inhibitor)
[9] = fold change over baseline, primary human total T-cells

T1 sequence (Q13191 36-427): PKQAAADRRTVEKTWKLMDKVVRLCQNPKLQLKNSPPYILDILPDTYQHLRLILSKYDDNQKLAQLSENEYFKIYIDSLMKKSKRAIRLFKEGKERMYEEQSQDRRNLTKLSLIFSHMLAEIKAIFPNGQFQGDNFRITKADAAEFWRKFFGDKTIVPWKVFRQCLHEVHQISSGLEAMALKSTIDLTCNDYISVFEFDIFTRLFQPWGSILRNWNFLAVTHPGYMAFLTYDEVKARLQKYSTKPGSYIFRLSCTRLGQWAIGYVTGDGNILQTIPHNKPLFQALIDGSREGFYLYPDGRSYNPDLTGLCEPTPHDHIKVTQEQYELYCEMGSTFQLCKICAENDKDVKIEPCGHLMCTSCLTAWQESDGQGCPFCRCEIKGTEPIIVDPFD

Structure (SMILES)	fold induction at 1 µM [1, 7]	fold induction at 1 µM [2, 7]	fold induction at 0.3 µM [3, 8]	fold induction at 1 µM [3, 8]	IC50 [4] [nM]	fold induction at 0.3 µM [5, 8]	fold induction at 1 µM [5, 8]	IC50 [6] [nM]	fold induction at 1 µM [1, 9]	fold induction at 8 µM [1, 9]	fold induction at 1 µM [2, 9]	fold induction at 8 µM [2, 9]	fold induction at 0.3 µM [3, 9]	fold induction at 1 µM [3, 9]	fold induction at 4 µM [3, 9]	fold induction at 0.3 µM [5, 9]	fold induction at 1 µM [5, 9]	fold induction at 4 µM [5, 9]
Cn1cnnc1CC1(c2cccc(NC(=O)c3cc(CN4CC[C@H](F)C4)nc(C(F)(F)F)n3)c2)COC1 [Example 699, (S)-6-((3-fluoropyrrolidin-1-yl)methyl)-N-(3-(3-((4-methyl-4H-1,2,4-triazol-3-yl)methyl)oxetan-3-yl)phenyl)-2-(trifluoromethyl)pyrimidine-4-carboxamide]	0.051 to 0.1	0.801 to 1	1.01 to 1.3	1.01 to 1.3	< 100	1.01 to 2.5	2.51 to 5	≤ 100	–	–	–	–	–	–	–	–	–	–
Cc1c[nH]nc1C[C@H](C)c1cccc(N2Cc3c(cccc3C(F)(F)F)C2=O)c1 (single isomer, unassigned) [Compound 270a]	–	–	–	–	301 to 1000	–	–	≤ 1000	0.101 to 0.15	0.151 to 0.2	0.601 to 0.8	0.801 to 1	1.01 to 1.3	1.01 to 1.3	1.01 to 1.3	1.01 to 2.5	1.01 to 2.5	1.01 to 2.5
Cn1cnnc1CC1(c2cccc(NC(=O)c3ccnc(C(F)(F)F)n3)c2)COC1 [Compound 337, N-(3-(3-((4-methyl-4H-1,2,4-triazol-3-yl)methyl)oxetan-3-yl)phenyl)-2-(trifluoromethyl)pyrimidine-4-carboxamide]	–	–	–	–	100 to 300	–	–	≤ 300	0.051 to 0.1	0.151 to 0.2	0.601 to 0.8	> 1	1.01 to 1.3	1.01 to 1.3	1.01 to 1.3	1.01 to 2.5	2.51 to 5	2.51 to 5
CN1C[C@@H]2C[C@H]1CN2c1cc2c(c(C(F)(F)F)c1)CN(c1cccc([C@@](C)(F)C(F)(F)c3nncn3C)c1)C2=O [Example 563, 6-((1S,4S)-5-Methyl-2,5-diazabicyclo[2.2.1]heptan-2-yl)-2-(3-((R)-1,1,2-trifluoro-1-(4-methyl-4H-1,2,4-triazol-3-yl)propan-2-yl)phenyl)-4-(trifluoromethyl)-isoindolin-1-one]	0.051 to 0.1	0.801 to 1	1.01 to 1.3	1.31 to 1.5	< 100	1.01 to 2.5	2.51 to 5	≤ 100	–	–	–	–	–	–	–	–	–	–
C[C@H](Cc1nncn1C)c1cc(NC2CCC2)nc(N2Cc3c(cccc3C(F)(F)F)C2=O)c1 [Compound 351, 2-[6-(cyclobutylamino)-4-[(2R)-1-(4-methyl-4H-1,2,4-triazol-3-yl)propan-2-yl]pyridin-2-yl]-4-(trifluoromethyl)-2,3-dihydro-1H-isoindol-1-one]	–	–	–	–	100 to 300	–	–	≤ 300	< 0.05	0.151 to 0.2	0.601 to 0.8	> 1	1.01 to 1.3	1.01 to 1.3	1.01 to 1.3	1.01 to 2.5	1.01 to 2.5	1.01 to 2.5
C[C@H](Cc1nncn1C)c1cccc(NC(=O)c2ccnc3ccnn23)c1 [Compound 328, (R)-N-(3-(1-(4-Methyl-4H-1,2,4-triazol-3-yl)propan-2-yl)phenyl)pyrazolo[1,5-a]pyrimidine-7-carboxamide]	–	–	–	–	< 100	–	–	≤ 100	0.051 to 0.1	0.101 to 0.15	0.801 to 1	> 1	1.01 to 1.3	1.01 to 1.3	1.01 to 1.3	1.01 to 2.5	1.01 to 2.5	2.51 to 5
Cn1cnnc1CC1(c2cccc(NC(=O)c3cc(C4CC4)nc4ccnn34)c2)COC1 [Example 604, 5-cyclopropyl-N-(3-(3-((4-methyl-4H-1,2,4-triazol-3-yl)methyl)oxetan-3-yl)phenyl)pyrazolo[1,5-a]pyrimidine-7-carboxamide]	< 0.05	0.601 to 0.8	1.01 to 1.3	1.01 to 1.3	< 100	1.01 to 2.5	2.51 to 5	≤ 100	–	–	–	–	–	–	–	–	–	–
C[C@@H](c1cccc(N2Cc3c(cccc3C(F)(F)F)C2=O)c1)[C@@H](O)c1nncn1C (racemic) [Compound 292, cis-2-(3-(1-Hydroxy-1-(4-methyl-4H-1,2,4-triazol-3-yl)propan-2-yl)phenyl)-4-(trifluoromethyl)isoindolin-1-one]	–	–	–	–	1000 to 3000	–	–	≤ 10000	< 0.05	< 0.05	< 0.6	< 0.6	1.01 to 1.3	< 1	1.01 to 1.3	2.51 to 5	1.01 to 2.5	1.01 to 2.5
Cn1cnnc1CC1(c2cccc(N3Cc4c(cc(CN5CCC[C@@H](F)C5)cc4C(F)(F)F)C3=O)c2)COC1 [Example 623, (R)-6-((3-fluoropiperidin-1-yl)methyl)-2-(3-(3-((4-methyl-4H-1,2,4-triazol-3-yl)methyl)oxetan-3-yl)phenyl)-4-(trifluoromethyl)isoindolin-1-one]	> 0.201	> 1	1.31 to 1.5	1.31 to 1.5	< 100	> 7.5	> 7.5	≤ 100	–	–	–	–	–	–	–	–	–	–
Cn1cnnc1CC1(c2cccc(N3Cc4c(cc(CN5CCC(C#N)CC5)cc4C(F)(F)F)C3=O)c2)COC1 [Example 628, 1-((2-(3-(3-((4-methyl-4H-1,2,4-triazol-3-yl)methyl)oxetan-3-yl)phenyl)-3-oxo-7-(trifluoromethyl)isoindolin-5-yl)methyl)piperidine-4-carbonitrile]	> 0.201	> 1	1.31 to 1.5	1.31 to 1.5	< 100	5 to 7.5	> 7.5	≤ 100	–	–	–	–	–	–	–	–	–	–
Cn1cnnc1[C@@H](F)C1(c2cccc(N3Cc4c(cc(CN5C6CCC5CC6)cc4C(F)(F)F)C3=O)c2)COC1 [Example 671a, (S)-6-((7-azabicyclo[2.2.1]heptan-7-yl)methyl)-2-(3-(3-(fluoro(4-methyl-4H-1,2,4-triazol-3-yl)methyl)oxetan-3-yl)phenyl)-4-(trifluoromethyl)isoindolin-1-one]	> 0.201	0.601 to 0.8	1.51 to 1.75	> 1.76	< 100	2.51 to 5	5 to 7.5	≤ 100	–	–	–	–	–	–	–	–	–	–
COc1cc(C(=O)Nc2cccc([C@H](C)Cc3nncn3C)c2)nc(C(F)(F)F)c1 [Compound 192, (R)-4-methoxy-N-(3-(1-(4-methyl-4H-1,2,4-triazol-3-yl)propan-2-yl)phenyl)-6-(trifluoromethyl)picolinamide]	–	–	–	–	301 to 1000	–	–	≤ 1000	0.101 to 0.15	0.101 to 0.15	0.801 to 1	0.801 to 1	1.01 to 1.3	1.01 to 1.3	1.01 to 1.3	1.01 to 2.5	1.01 to 2.5	1.01 to 2.5

From US20220324835A1 (Nurix Therapeutics, Inc., priority 2018, published 2022)
